# Results reported in patent US8871767B2, “2-arylimidazo[1,2-B]pyridazine, 2-phenylimidazo[1,2-A]pyridine, and 2-phenylimidazo[1,2-A]pyrazine derivatives” (Hengrui (USA) Ltd., priority 2010, dated 2014).
# Where two headings read alike, the source gives them in different places.
# Legend:
# [1] = tested on: Hedgehog pathway activation on 10T1/2/Smo#3 cells (C3H10T1/2 cells transfected with human Smoothened receptor); experiment: Hedgehog pathway activation on 10T1/2/Smo#3 cells measured by ALP activity; type: cell-based; settings: Mus musculus, C3H 10T1/2, 10T1/2/Smo#3 cells
# How it was run: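 C3H10T1/2 cells stably expressing human Smoothened were activated with hShh-conditioned medium (10-20%) or 500 nM SAG, with test compounds present. Pathway block read as inhibited ALP activity (4-methylumbelliferyl phosphate fluorescence); viability checked by CellTiter-Blue. IC50 values reported.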
# [2] = tested on: Hedgehog pathway activation (GLi-luciferase reporter) in Shh Light II reporter cells; experiment: Hedgehog pathway activation on Shh Light II reporter cells measured by luciferase activity; type: cell-based; settings: Mus musculus, Shh Light II
# How it was run: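 Shh Light II reporter cells carrying a hedgehog-responsive GLi-luciferase reporter were stimulated either with 500 nM SAG, a direct Smoothened agonist, or with conditioned media containing human Sonic Hedgehog (hShh). Test compounds were evaluated for blocking this pathway activation, quantified by luciferase activity. Cell viability was monitored in parallel with the Celltiter-Blue® assay.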
# [3] = hShh activation, ALP activity, read-out: 10T1/2/Smo#3 ALP activity (hShh Activation)
# [4] = measured by ALP activity, read-out: ALP (IC50, inhibition of Hedgehog pathway activation)
# [5] = SAG activation (500 nM SAG), read-out: Shh Light II luciferase activity (SAG activation)
# [6] = hShh activation, read-out: Shh (IC50, inhibition of Hedgehog pathway activation)
# [7] = hShh activation, read-out: Shh Light II luciferase activity (hShh activation)
Structure (SMILES),"IC50 [1, 3] [nM]","IC50 [1, 4] [nM]","IC50 [2, 5] [nM]","IC50 [2, 6] [nM]","IC50 [2, 7] [nM]"
"Cc1c(-c2ccccc2)nc2ccc(NC3CCN(Cc4ccccc4)CC3)nn12 [Example 168, N-(1-benzylpiperidin-4-yl)-3-methyl-2-phenylimidazo[1,2-b]pyridazin-6-amine]",300 to 3000,2980,300 to 3000,1920,300 to 3000
"CC(C)(C)C(=O)Nc1cc(-c2cn3nc(-c4ccccc4F)ccc3n2)ccc1C(F)(F)F [Example 171, N-(5-(6-(2-fluorophenyl)imidazo[1,2-b]pyridazin-2-yl)-2-(trifluoromethyl)phenyl)pivalamide]",,221,,41,
"CC(C)(C)C(=O)Nc1cc(-c2cn3nc(C#N)ccc3n2)ccc1C(F)(F)F [Example 173, N-(5-(6-cyanoimidazo[1,2-b]pyridazin-2-yl)-2-(trifluoromethyl)phenyl)pivalamide]",3000 to 30000,4430,3000 to 30000,4400,3000 to 30000
"CC(C)(C)OC(=O)n1cccc1-c1ccc2nc(-c3ccc(C(F)(F)F)c(NC(=O)C(C)(C)C)c3)cn2n1 [Example 178, tert-butyl 2-(2-(3-pivalamido-4-(trifluoromethyl)phenyl)imidazo[1,2-b]pyridazin-6-yl)-1H-pyrrole-1-carboxylate]",,607,,468,
"CC(C)(C)C(=O)Nc1cc(-c2cn3nc(C(N)=O)ccc3n2)ccc1C(F)(F)F [Example 180, 2-(3-pivalamido-4-(trifluoromethyl)phenyl)imidazo[1,2-b]pyridazine-6-carboxamide]",3000 to 30000,5730,3000 to 30000,3880,3000 to 30000
"CC(C)Oc1ccc2nc(-c3ccc(C(F)(F)F)c(NC(=O)C(C)(C)C)c3)cn2n1 [Example 181, N-(5-(6-isopropoxyimidazo[1,2-b]pyridazin-2-yl)-2-(trifluoromethyl)phenyl)pivalamide]",,1070,,245,
"CC(C)(C)C(=O)Nc1cc(-c2cn3nc(OC4CCC4)ccc3n2)ccc1C(F)(F)F [Example 182, N-(5-(6-cyclobutoxyimidazo[1,2-b]pyridazin-2-yl)-2-(trifluoromethyl)phenyl)pivalamide]",,1860,,1740,
"CC(C)(C)C(=O)Nc1cc(-c2cn3nc(-c4c(F)cccc4F)ccc3n2)ccc1C(F)(F)F [Example 184, N-(5-(6-(2,6-difluorophenyl)imidazo[1,2-b]pyridazin-2-yl)-2-(trifluoromethyl)phenyl)pivalamide]",,61,,191,
"CCOc1ccc2nc(-c3ccc(C(F)(F)F)c(NC(=O)C(C)C)c3)cn2n1 [Example 185, N-(5-(6-ethoxyimidazo[1,2-b]pyridazin-2-yl)-2-(trifluoromethyl)phenyl)isobutyramide]",,1670,,1780,
"CCOc1ccc2nc(-c3ccc(C(F)(F)F)c(NC(=O)C4CC4)c3)cn2n1 [Example 186, N-(5-(6-ethoxyimidazo[1,2-b]pyridazin-2-yl)-2-(trifluoromethyl)phenyl)cyclopropanecarboxamide]",,8380,,> 10000,
"CCOc1ccc2nc(-c3ccc(C(F)(F)F)c(NC(=O)CC(C)(C)C)c3)cn2n1 [Example 187, N-(5-(6-ethoxyimidazo[1,2-b]pyridazin-2-yl)-2-(trifluoromethyl)phenyl)-3,3-dimethylbutanamide]",,> 10000,,> 10000,
"CCOc1ccc2nc(-c3ccc(C(F)(F)F)c(NC(=O)C(C)(C)C(F)(F)F)c3)cn2n1 [Example 188, N-(5-(6-ethoxyimidazo[1,2-b]pyridazin-2-yl)-2-(trifluoromethyl)phenyl)-3,3,3-trifluoro-2,2-dimethylpropanamide]",,875,,1400,
"CCOc1ccc2nc(-c3ccc(C(F)(F)F)c(NC(=O)C4CCCC4)c3)cn2n1 [Example 189, N-(5-(6-ethoxyimidazo[1,2-b]pyridazin-2-yl)-2-(trifluoromethyl)phenyl)cyclopentanecarboxamide]",,2100,,2000,
"CCOc1ccc2nc(-c3ccc(C(F)(F)F)c(NC(=O)C4CCCCC4)c3)cn2n1 [Example 190, N-(5-(6-ethoxyimidazo[1,2-b]pyridazin-2-yl)-2-(trifluoromethyl)phenyl)cyclohexanecarboxamide]",,5260,,> 10000,
"CCOc1ccc2nc(-c3ccc(C(F)(F)F)c(NC(=O)c4ccccc4)c3)cn2n1 [Example 191, N-(5-(6-ethoxyimidazo[1,2-b]pyridazin-2-yl)-2-(trifluoromethyl)phenyl)benzamide]",,1570,,579,
"CCOc1ccc2nc(-c3ccc(C(F)(F)F)c(NC(=O)c4ccccc4F)c3)cn2n1 [Example 192, N-(5-(6-ethoxyimidazo[1,2-b]pyridazin-2-yl)-2-(trifluoromethyl)phenyl)-2-fluorobenzamide]",,4760,,1580,
"CCOc1ccc2nc(-c3ccc(C(F)(F)F)c(NC(=O)c4cccnc4)c3)cn2n1 [Example 193, N-(5-(6-ethoxyimidazo[1,2-b]pyridazin-2-yl)-2-(trifluoromethyl)phenyl)nicotinamide]",,2340,,7760,
"CCOc1ccc2nc(-c3ccc(C(F)(F)F)c(NC(=O)Cc4ccccc4)c3)cn2n1 [Example 194, N-(5-(6-ethoxyimidazo[1,2-b]pyridazin-2-yl)-2-(trifluoromethyl)phenyl)-2-phenylacetamide]",,> 10000,,1750,
"CC(C)(C)C(=O)Nc1cc(-c2cn3nc(Oc4ccccc4F)ccc3n2)ccc1C(F)(F)F [Example 195, N-(5-(6-(2-fluorophenoxy)imidazo[1,2-b]pyridazin-2-yl)-2-(trifluoromethyl)phenyl)pivalamide]",,718,,267,
"CC(C)(C)C(=O)Nc1cc(-c2cn3nc(Oc4ccc(F)cc4)ccc3n2)ccc1C(F)(F)F [Example 196, N-(5-(6-(4-fluorophenoxy)imidazo[1,2-b]pyridazin-2-yl)-2-(trifluoromethyl)phenyl)pivalamide]",300 to 3000,1620,3000 to 30000,726,300 to 3000

# The next lines start with the values.
"IC50 [1, 3] [nM]","IC50 [1, 4] [nM]","IC50 [2, 5] [nM]","IC50 [2, 6] [nM]","IC50 [2, 7] [nM]",Structure (SMILES)
,423,,710,,"CC(C)(C)C(=O)Nc1cc(-c2cn3nc(-c4ccncc4)ccc3n2)ccc1C(F)(F)F [Example 169, N-(5-(6-(pyridin-4-yl)imidazo[1,2-b]pyridazin-2-yl)-2-(trifluoromethyl)phenyl)pivalamide]"
,681,,562,,"COc1ccc(-c2ccc3nc(-c4ccc(C(F)(F)F)c(NC(=O)C(C)(C)C)c4)cn3n2)cn1 [Example 170, N-(5-(6-(6-methoxypyridin-3-yl)imidazo[1,2-b]pyridazin-2-yl)-2-(trifluoromethyl)phenyl)pivalamide]"
,403,,936,,"COc1ccccc1-c1ccc2nc(-c3ccc(C(F)(F)F)c(NC(=O)C(C)(C)C)c3)cn2n1 [Example 172, N-(5-(6-(2-methoxyphenyl)imidazo[1,2-b]pyridazin-2-yl)-2-(trifluoromethyl)phenyl)pivalamide]"
,215,,689,,"CC(C)(C)C(=O)Nc1cc(-c2cn3nc(-c4ccc(F)nc4)ccc3n2)ccc1C(F)(F)F [Example 174, N-(5-(6-(6-fluoropyridin-3-yl)imidazo[1,2-b]pyridazin-2-yl)-2-(trifluoromethyl)phenyl)pivalamide]"
,513,,799,,"COc1ncccc1-c1ccc2nc(-c3ccc(C(F)(F)F)c(NC(=O)C(C)(C)C)c3)cn2n1 [Example 175, N-(5-(6-(2-methoxypyridin-3-yl)imidazo[1,2-b]pyridazin-2-yl)-2-(trifluoromethyl)phenyl)pivalamide]"
,97,,79,,"CC(C)(C)C(=O)Nc1cc(-c2cn3nc(-c4cccnc4F)ccc3n2)ccc1C(F)(F)F [Example 176, N-(5-(6-(2-fluoropyridin-3-yl)imidazo[1,2-b]pyridazin-2-yl)-2-(trifluoromethyl)phenyl)pivalamide]"
,236,,357,,"CC(C)(C)C(=O)Nc1cc(-c2cn3nc(-c4ccncc4F)ccc3n2)ccc1C(F)(F)F [Example 177, N-(5-(6-(3-fluoropyridin-4-yl)imidazo[1,2-b]pyridazin-2-yl)-2-(trifluoromethyl)phenyl)pivalamide]"
,1440,,454,,"CC(C)(C)C(=O)Nc1cc(-c2cn3nc(-c4ccc[nH]4)ccc3n2)ccc1C(F)(F)F [Example 179, N-(5-(6-(1H-pyrrol-2-yl)imidazo[1,2-b]pyridazin-2-yl)-2-(trifluoromethyl)phenyl)pivalamide]"
,995,,327,,"CC(C)(C)C(=O)Nc1cc(-c2cn3nc(-c4ccc(F)cc4F)ccc3n2)ccc1C(F)(F)F [Example 183, N-(5-(6-(2,4-difluorophenyl)imidazo[1,2-b]pyridazin-2-yl)-2-(trifluoromethyl)phenyl)pivalamide]"
,875,,357,,"COc1ccccc1Oc1ccc2nc(-c3ccc(C(F)(F)F)c(NC(=O)C(C)(C)C)c3)cn2n1 [Example 197, N-(5-(6-(2-methoxyphenoxy)imidazo[1,2-b]pyridazin-2-yl)-2-(trifluoromethyl)phenyl)pivalamide]"
